Results from patent EP4643856A1, “CARBAZOLE DERIVATIVES USED AS NEUROPROTECTANTS AND IN THE TREATMENT OF DISORDERS WITH REDUCED NAD METABOLISM” (Centre National de la Recherche Scientifique, priority 2024, dated 2025).
“Also recorded” adds a separate entry of the source.

Key:
HeLa cells [1] = test: FK866-induced cytotoxicity, viability assay (prestoblue assay); format: cell-based; conditions: 3.5 nM FK866 in the presence of 6 µM compound, 72 hours
Description: (§1) This clearly indicates an activation of the pathways leading to NADH production. • Figure 3 represents the effect of compounds I-a, I-f, I-m, I-n, I-q and the comparative example on the cytotoxicity mediated by NAMPT inhibitor FK866. HeLa cells were seeded in microplates and incubated with 3.5 nM FK866 without (black) or in the presence of 6 µM of I-a and different analogues (grey), as indicated, for 72 hours. A viability assay (prestoblue assay) was then conducted. […] Behavioral assessments were performed on 5-week-old male Sprague-Dawley rats before (basal values) and at days 4, 7, 11 and 14 after the beginning of the drug injections (Compound I-a 50 mg/kg, paclitaxel (PTX) 4 mg/kg, Compound I-a 50 mg/kg + PTX 4 mg/kg). Control animals (Vehicle) received vehicle injections. The results are presented by mean ± standard deviation (n = 6 per group). Tactile nociceptive thresholds were assessed using an electronic von Frey test (J. Ferrier, F. Marchand, D. Balayssac, Assessment of mechanical allodynia in rats using the electronic von frey test, BIO-Protoc., 6 (2016), 10.21769/BioProtoc.1933). Rats were placed individually in plastic compartments on an elevated wire floor and left for habituation for 15 min before each experiment. […] The maximum force applied (expressed in grams) to induce paw withdrawal was recorded automatically.
The compound FK866 is known to be a potent selective inhibitor of the NAMPT enzyme. Administration of FK866 in cultured cells results in depletion of intracellular NAD levels and subsequent cell death. The effect of compound I-a and other compounds of the series on FK866-induced cytotoxicity in HeLa cells was assayed.
HeLa cells were seeded in microplates and incubated with 3.5 nM FK866 without (black) or in the presence of 6 µM of I-a and different analogues (grey), as indicated, for 72 hours. A viability assay (prestoblue assay) was then conducted.

[2] = system: rat model of paclitaxel-induced neuropathy; test: Rat model of paclitaxel-induced neuropathy, electronic von Frey test; format: in vivo; conditions: days 4, 7, 11 and 14
Description: as §1

NAMPT = NAMPT (Homo sapiens, UniProt P43490); test: NAMPT activation in vitro, biochemical assay
NAMPT, sequence (P43490 whole entry, species assumed): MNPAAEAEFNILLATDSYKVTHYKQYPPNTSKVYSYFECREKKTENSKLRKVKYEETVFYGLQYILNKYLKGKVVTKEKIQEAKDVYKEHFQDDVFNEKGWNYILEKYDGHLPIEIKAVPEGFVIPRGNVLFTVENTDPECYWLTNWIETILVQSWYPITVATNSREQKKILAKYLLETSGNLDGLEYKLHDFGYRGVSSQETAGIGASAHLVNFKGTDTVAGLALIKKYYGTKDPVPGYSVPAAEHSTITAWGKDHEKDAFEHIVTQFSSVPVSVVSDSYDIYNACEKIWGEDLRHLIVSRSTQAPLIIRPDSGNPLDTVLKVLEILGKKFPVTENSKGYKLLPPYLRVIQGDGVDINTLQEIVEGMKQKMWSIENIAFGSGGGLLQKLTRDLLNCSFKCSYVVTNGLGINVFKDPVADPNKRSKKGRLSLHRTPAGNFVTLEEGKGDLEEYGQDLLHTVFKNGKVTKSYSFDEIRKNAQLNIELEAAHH

HeLa cells [3] = test: Kinetics of NADH autofluorescence (endogenous NADH production) by confocal microscopy; format: cell-based; conditions: I-a (5 µM) or I-s (0.5 µM), 25-minute analysis, in comparison with controls

Row | Structure (SMILES) | effect on FK866-induced cell death (HeLa cells [1]) | other results
1 | CCOC(=O)Oc1ccc2[nH]c3c(C)cc(-n4cccc4)c(C)c3c2c1 [I-n] | significantly reduced cell death | 
2 | CC(=O)O[C@H]1C(=O)[C@@]2(C)[C@H]([C@H](OC(=O)c3ccccc3)[C@]3(O)C[C@H](OC(=O)[C@H](O)[C@@H](NC(=O)c4ccccc4)c4ccccc4)C(C)=C1C3(C)C)[C@]1(OC(C)=O)CO[C@@H]1C[C@@H]2O [PTX, paclitaxel, reference compound] |  | tactile sensitivity (tactile nociceptive thresholds, von Frey) ([2]; PTX 4 mg/kg alone, compared with basal value at day 0): progressively induce a tactile hypersensitivity; also recorded: developed progressively tactile hypersensitivity
3 | Cc1cc(-n2cccc2)c(C)c2c1[nH]c1ccc(Cl)cc12 [I-a, 6-chloro-1,4-dimethyl-3-pyrrol-1-yl-9H-carbazole] | significantly reduced cell death | tactile sensitivity (tactile nociceptive thresholds, von Frey) ([2]; Compound I-a 50 mg/kg + PTX 4 mg/kg, force in grams, n = 6 per group): prevents the hypersensitivity induced by PTX; NAMPT activation (NAMPT): activates NAMPT in vitro; NADH production (NADH autofluorescence) (HeLa cells [3]): dose-dependent increase in NADH production
4 | Cc1cc(-n2cccc2)c(C)c2c1[nH]c1ccc(O)cc12 [I-m] | no detectable protective effect | 
5 | COc1cccc(NCC(F)Cn2c3ccc(Cl)cc3c3c(C)c(-n4cccc4)cc(C)c32)c1 (centres unmarked) [Comparative example, N-[3-(6-chloro-1,4-dimethyl-3-pyrrol-1-yl-carbazol-9-yl)-2-fluoro-propyl]-3-methoxy-aniline, reference compound] | does not reduce FK866-induced cell death | 
6 | Cc1cc(-n2cccc2)c(C)c2c1[nH]c1ccc(Br)cc12 [I-f] | can relieve the cytotoxicity of the NAMPT inhibitor FK866; also recorded: reduced cell death | 
7 | Cc1cc(-n2ccc(CO)c2)c(C)c2c1[nH]c1ccc(Cl)cc12 [I-s] |  | NADH production (NADH autofluorescence) (HeLa cells [3]): dose-dependent increase in NADH production
8 | CCc1cccc2c1[nH]c1c(C)cc(-n3cccc3)c(C)c12 [I-q] | significantly reduced cell death | 
